In US20250098679A1, “HERBICIDAL PYRIDONE DERIVATIVES” (SYNGENTA CROP PROTECTION AG, priority 2021, published 2025):

Experiments:
Type in all cases: in vivo
Conditions in all cases: evaluated after 13 days
Setaria faberi (SETFA) [1] = assay: Pre-emergence Test, Setaria faberi (SETFA)
[2] = test system: Echinochloa crus-galli (ECHCG); assay: Pre-emergence Test, Echinochloa crus-galli (ECHCG)
Zea mays (ZEAMX) [3] = assay: Pre-emergence Test, Zea mays (ZEAMX)
[4] = test system: Ipomoea hederacea (IPOHE); assay: Pre-emergence Test, Ipomoea hederacea (IPOHE)
[5] = test system: Amaranthus palmeri (AMAPA); assay: Pre-emergence Test, Amaranthus palmeri (AMAPA)
[6] = test system: Amaranthus retoflexus (AMARE); assay: Pre-emergence Test, Amaranthus retoflexus (AMARE)
Setaria faberi (SETFA) [7] = assay: Post-emergence Test, Setaria faberi (SETFA); design: key to percentage damage caused to the plant, SETFA (five-point scale): 5=81-100%, 4=61-80%, 3=41-60%, 2=21-40%, 1=0-20% damage
Method in brief: (§1)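 Percent plant damage was rated 13 days post-application on a 1–5 scale (1=0-20%, 5=81-100%). Application used an aqueous acetone (50:50)/0.5% Tween 20 spray, normally 1000 g/ha, with controlled glasshouse conditions (24/16 °C, 14 h light, 65% humidity).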

[8] = test system: Echinochloa crus-galli (ECHCG); assay: Post-emergence Test, Echinochloa crus-galli (ECHCG); design: key to percentage damage caused to the plant, ECHCG (five-point scale): 5=81-100%, 4=61-80%, 3=41-60%, 2=21-40%, 1=0-20% damage
Method in brief: as §1

Zea mays (ZEAMX) [9] = assay: Post-emergence Test, Zea mays (ZEAMX); design: key to percentage damage caused to the plant, ZEAMX (five-point scale): 5=81-100%, 4=61-80%, 3=41-60%, 2=21-40%, 1=0-20% damage
Method in brief: as §1

[10] = test system: Ipomoea hederacea (IPOHE); assay: Post-emergence Test, Ipomoea hederacea (IPOHE); design: key to percentage damage caused to the plant, IPOHE (five-point scale): 5=81-100%, 4=61-80%, 3=41-60%, 2=21-40%, 1=0-20% damage
Method in brief: as §1

[11] = test system: Amaranthus palmeri (AMAPA); assay: Post-emergence Test, Amaranthus palmeri (AMAPA); design: key: 5=81-100%, 4=61-80%, 3=41-60%, 2=21-40%, 1=0-20% damage
Method in brief: as §1

[12] = test system: Amaranthus retoflexus (AMARE); assay: Post-emergence Test, Amaranthus retoflexus (AMARE); design: key to percentage damage caused to the plant, AMARE (five-point scale): 5=81-100%, 4=61-80%, 3=41-60%, 2=21-40%, 1=0-20% damage
Method in brief: as §1

Row | Compound | percentage damage caused to the plant, SETFA (five-point scale) (Setaria faberi (SETFA) [7]; 250 g/Ha) | percentage damage caused to the plant, ECHCG (five-point scale) ([8]; 250 g/Ha) | percentage damage caused to the plant, ZEAMX (five-point scale) (Zea mays (ZEAMX) [9]; 250 g/Ha) | percentage damage caused to the plant, IPOHE (five-point scale) ([10]; 250 g/Ha) | percentage damage caused to the plant, AMAPA (five-point scale) ([11]; 250 g/Ha) | percentage damage caused to the plant, AMARE (five-point scale) ([12]; 250 g/Ha) | Pre-emergence Test SETFA, percentage damage caused to the plant (five-point scale) (Setaria faberi (SETFA) [1]; 1000 g/ha) | Pre-emergence Test ECHCG, percentage damage caused to the plant (five-point scale) ([2]; 1000 g/ha) | Pre-emergence Test ZEAMX, percentage damage caused to the plant (five-point scale) (Zea mays (ZEAMX) [3]; 1000 g/ha) | Pre-emergence Test IPOHE, percentage damage caused to the plant (five-point scale) ([4]; 1000 g/ha) | Pre-emergence Test AMAPA, percentage damage caused to the plant (five-point scale) ([5]; 1000 g/ha) | Pre-emergence Test AMARE, percentage damage caused to the plant (five-point scale) ([6]; 1000 g/ha) | percentage damage caused to the plant, SETFA (five-point scale) (Setaria faberi (SETFA) [7]; 1000 g/ha) | percentage damage caused to the plant, ECHCG (five-point scale) ([8]; 1000 g/ha) | percentage damage caused to the plant, ZEAMX (five-point scale) (Zea mays (ZEAMX) [9]; 1000 g/ha) | percentage damage caused to the plant, IPOHE (five-point scale) ([10]; 1000 g/ha) | percentage damage caused to the plant, AMAPA (five-point scale) ([11]; 1000 g/ha) | percentage damage caused to the plant, AMARE (five-point scale) ([12]; 1000 g/ha) | further results
1 | CCn1c(Cn2ncc3cc(Cl)ccc32)cc(=O)c(C(=O)O)c1-c1ccc(Cl)c(Cl)c1 [Compound 98, 6-[(5-chloroindazol-1-yl)methyl]-2-(3,4-dichlorophenyl)-1-ethyl-4-oxo-pyridine-3-carboxylic acid] | 1 (1=0-20%) | 2 (2=21-40%) | 1 (1=0-20%) | 1 (1=0-20%) | 0 | 1 (1=0-20%) |  |  |  |  |  |  |  |  |  |  |  |  | Pre-emergence Test SETFA, percentage damage caused to the plant (five-point scale) (Setaria faberi (SETFA) [1]; 250 g/Ha (*)): 0; Pre-emergence Test ECHCG, percentage damage caused to the plant (five-point scale) ([2]; 250 g/Ha (*)): 0; Pre-emergence Test ZEAMX, percentage damage caused to the plant (five-point scale) (Zea mays (ZEAMX) [3]; 250 g/Ha (*)): 0; Pre-emergence Test IPOHE, percentage damage caused to the plant (five-point scale) ([4]; 250 g/Ha (*)): 0; Pre-emergence Test AMAPA, percentage damage caused to the plant (five-point scale) ([5]; 250 g/Ha (*)): 1 (1=0-20%); Pre-emergence Test AMARE, percentage damage caused to the plant (five-point scale) ([6]; 250 g/Ha (*)): 0
2 | CCn1c(Cn2ccc(C(F)(F)F)n2)cc(=O)c(C(=O)O)c1-c1ccc(F)c(F)c1 [Compound 31, 2-(3,4-difluorophenyl)-1-ethyl-4-oxo-6-[[3-(trifluoromethyl)pyrazol-1-yl]methyl]pyridine-3-carboxylic acid] | 4 (4=61-80%) | 2 (2=21-40%) | 1 (1=0-20%) | 4 (4=61-80%) | 0 | 1 (1=0-20%) | 5 (5=81-100%) | 5 (5=81-100%) | 0 | 1 (1=0-20%) | 0 | 0 | 4 (4=61-80%) | 4 (4=61-80%) | 3 (3=41-60%) | 2 (2=21-40%) | 2 (2=21-40%) | 2 (2=21-40%) | 
3 | CCn1c(Cn2ncc3cc(F)ccc32)cc(=O)c(C(=O)O)c1-c1ccc(Cl)c(Cl)c1 [Compound 102, 2-(3,4-dichlorophenyl)-1-ethyl-6-[(5-fluoroindazol-1-yl)methyl]-4-oxo-pyridine-3-carboxylic acid] | 1 (1=0-20%) | 3 (3=41-60%) | 1 (1=0-20%) | 1 (1=0-20%) | 2 (2=21-40%) | 1 (1=0-20%) | 1 (1=0-20%) | 1 (1=0-20%) | 0 | 3 (3=41-60%) | 1 (1=0-20%) | 1 (1=0-20%) | 2 (2=21-40%) | 3 (3=41-60%) | 0 | 3 (3=41-60%) | 4 (4=61-80%) | 4 (4=61-80%) | 
